Test results: ChEMBL document CHEMBL1201862, “PubChem BioAssay data set” (2004)
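A five-concentration, 48-hour dose response in 96-well plates underlies each endpoint, interpolated linearly between surrounding concentrations. GI50 marks 50% less growth.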 Active and inactive are the calls of the source. Cut-off read from the data, not from the text of the source: active = GI50 up to about 1.1 µM and inactive = higher.

Experiments:
Assay in all cases: NCI-60 cell line screen, 48 h
CCRF-CEM = test system: CCRF-CEM
DU-145 = test system: DU-145
EKVX = test system: EKVX
HCT-116 = test system: HCT-116
HT-29 = test system: HT-29
IGROV-1 = test system: IGROV-1
K562 = test system: K562
M14 = test system: M14
MDA-MB-435 = test system: MDA-MB-435
OVCAR-3 = test system: OVCAR-3
OVCAR-4 = test system: OVCAR-4
OVCAR-8 = test system: OVCAR-8
PC-3 = test system: PC-3
SF-268 = test system: SF-268
SK-MEL-2 = test system: SK-MEL-2
SK-MEL-5 = test system: SK-MEL-5
SNB-75 = test system: SNB-75
SW-620 = test system: SW-620
T47D = test system: T47D
UO-31 = test system: UO-31

Row | SMILES | GI50 (CCRF-CEM) | GI50 (DU-145) | GI50 (EKVX) | GI50 (HCT-116) | GI50 (HT-29) | GI50 (IGROV-1) | GI50 (K562) | GI50 (M14) | GI50 (MDA-MB-435) | GI50 (OVCAR-3) | GI50 (OVCAR-4) | GI50 (OVCAR-8) | GI50 (PC-3) | GI50 (SF-268) | GI50 (SK-MEL-2) | GI50 (SK-MEL-5) | GI50 (SNB-75) | GI50 (SW-620) | GI50 (T47D) | GI50 (UO-31)
1 | COc1cc(Cl)c(CC(=O)c2c[nH]c3ccccc23)cc1OC | > 34.6 µM (inactive) | > 100 µM (inactive) | 18.7 µM (inactive) | 98.6 µM (inactive) | > 100 µM (inactive) | 32.4 µM (inactive) | > 49.2 µM (inactive) | > 100 µM (inactive) | > 100 µM (inactive) | > 51.9 µM (inactive) | > 100 µM (inactive) | 8.55 µM (inactive) | > 100 µM (inactive) | 13.7 µM (inactive) | 16.7 µM (inactive) | > 100 µM (inactive) | 8.93 µM (inactive) | > 100 µM (inactive) | > 28.5 µM (inactive) | –
2 | O=C(c1ccc(Cl)cc1)N(C(=S)OCCOc1ccccc1)c1ccccc1 | 13.7 µM (inactive) | 17.3 µM (inactive) | 20.1 µM (inactive) | 16.2 µM (inactive) | 17.6 µM (inactive) | 16.9 µM (inactive) | 30.4 µM (inactive) | 16.1 µM (inactive) | 17 µM (inactive) | 17.2 µM (inactive) | 18.6 µM (inactive) | 20.3 µM (inactive) | 21.1 µM (inactive) | 25.1 µM (inactive) | 22.1 µM (inactive) | – | – | 19.1 µM (inactive) | 20 µM (inactive) | 0.186 µM (active)
3 | CC1=C(O)C(=O)C[C@]2(C)[C@H]3CC=C4[C@@H]5CC(C)(C)CC[C@@H]5C(=O)[C@H](O)[C@@]4(C)[C@]3(C)CC[C@@H]12 | > 50 µM (inactive) | > 50 µM (inactive) | > 50 µM (inactive) | > 50 µM (inactive) | > 50 µM (inactive) | 21.8 µM (inactive) | – | > 50 µM (inactive) | > 50 µM (inactive) | > 50 µM (inactive) | 40.4 µM (inactive) | 22.6 µM (inactive) | 16.7 µM (inactive) | > 50 µM (inactive) | 37.4 µM (inactive) | 34.8 µM (inactive) | 17.3 µM (inactive) | > 50 µM (inactive) | > 50 µM (inactive) | > 50 µM (inactive)
4 | CC(CSc1nc2c(c(=N)n1-c1ccccc1)c(=S)n(-c1ccccc1)c(=S)n2-c1ccccc1)CN(C)C (centres undefined) | 0.289 µM (active) | 1.66 µM (inactive) | 1.66 µM (inactive) | 1.67 µM (inactive) | 1.95 µM (inactive) | 1.4 µM (inactive) | 1.07 µM (active) | 1.86 µM (inactive) | 1.72 µM (inactive) | 1.71 µM (inactive) | 1.76 µM (inactive) | 1.6 µM (inactive) | 1.87 µM (inactive) | 1.71 µM (inactive) | 2.45 µM (inactive) | 2.05 µM (inactive) | 1.78 µM (inactive) | 1.79 µM (inactive) | 2.67 µM (inactive) | –
5 | COc1cccc(/C=C/C2=NN(c3cccc(S(=O)(=O)O)c3)C3(C2)SCC(=O)N3c2nc3ccccc3s2)c1 (centres undefined) | 30.8 µM (inactive) | 30.6 µM (inactive) | 69.2 µM (inactive) | 62.7 µM (inactive) | 64.7 µM (inactive) | 36.7 µM (inactive) | 34.3 µM (inactive) | 80.9 µM (inactive) | 24.4 µM (inactive) | – | 49.4 µM (inactive) | 40.7 µM (inactive) | 37.9 µM (inactive) | 33.3 µM (inactive) | 44.8 µM (inactive) | 36 µM (inactive) | 74.6 µM (inactive) | 47.9 µM (inactive) | 16.1 µM (inactive) | 34.9 µM (inactive)
6 | COc1ccc(OCC(=N/NC(=O)c2ccncc2)/N=C/c2cccnc2)cc1 | > 100 µM (inactive) | > 100 µM (inactive) | > 100 µM (inactive) | > 100 µM (inactive) | > 100 µM (inactive) | > 100 µM (inactive) | 44.7 µM (inactive) | 60.5 µM (inactive) | 18.2 µM (inactive) | 65.8 µM (inactive) | 96.6 µM (inactive) | > 100 µM (inactive) | > 100 µM (inactive) | > 100 µM (inactive) | > 100 µM (inactive) | – | 24.2 µM (inactive) | 53.1 µM (inactive) | > 100 µM (inactive) | –
7 | CCOC(=O)C1=C(N2CCCC2)NC(=O)CC1=O | > 100 µM (inactive) | > 100 µM (inactive) | > 100 µM (inactive) | > 100 µM (inactive) | > 100 µM (inactive) | > 100 µM (inactive) | > 100 µM (inactive) | > 100 µM (inactive) | > 100 µM (inactive) | > 100 µM (inactive) | > 100 µM (inactive) | > 100 µM (inactive) | > 100 µM (inactive) | > 100 µM (inactive) | > 100 µM (inactive) | > 100 µM (inactive) | – | > 100 µM (inactive) | 63 µM (inactive) | > 100 µM (inactive)
8 | CCOC(=O)CCC(NC(=O)c1ccc(OCc2ccc3nc(OC)c(OC)nc3c2)cc1)C(=O)OCC (centres undefined) | 24 µM (inactive) | 69.5 µM (inactive) | – | 50.7 µM (inactive) | > 100 µM (inactive) | 55.8 µM (inactive) | 22.3 µM (inactive) | 21.9 µM (inactive) | 27.3 µM (inactive) | 20.2 µM (inactive) | – | > 100 µM (inactive) | 36.4 µM (inactive) | 57.7 µM (inactive) | 23.3 µM (inactive) | 38.4 µM (inactive) | 52.6 µM (inactive) | > 100 µM (inactive) | 31.7 µM (inactive) | 64.6 µM (inactive)
9 | CC(=N\N=C\c1ccccn1)/C(C)=N/N=C/c1ccccn1 | > 100 µM (inactive) | > 100 µM (inactive) | > 100 µM (inactive) | > 100 µM (inactive) | > 100 µM (inactive) | > 100 µM (inactive) | – | > 100 µM (inactive) | 42.9 µM (inactive) | > 100 µM (inactive) | 94.4 µM (inactive) | > 100 µM (inactive) | > 100 µM (inactive) | > 100 µM (inactive) | > 100 µM (inactive) | 98.4 µM (inactive) | > 100 µM (inactive) | > 100 µM (inactive) | > 100 µM (inactive) | > 100 µM (inactive)
10 | O=C1CCN2C(=N1)Sc1ccccc12 | > 100 µM (inactive) | > 100 µM (inactive) | > 100 µM (inactive) | > 100 µM (inactive) | > 100 µM (inactive) | > 100 µM (inactive) | > 100 µM (inactive) | > 100 µM (inactive) | > 100 µM (inactive) | > 100 µM (inactive) | > 100 µM (inactive) | > 100 µM (inactive) | > 100 µM (inactive) | > 100 µM (inactive) | > 100 µM (inactive) | > 100 µM (inactive) | > 100 µM (inactive) | > 100 µM (inactive) | > 100 µM (inactive) | –
11 | CN(C)C(=O)N1N[C@H](c2ccccc2)[C@@H]1c1ccccc1 | > 100 µM (inactive) | > 100 µM (inactive) | > 100 µM (inactive) | > 100 µM (inactive) | – | > 100 µM (inactive) | > 100 µM (inactive) | > 100 µM (inactive) | > 100 µM (inactive) | > 100 µM (inactive) | > 100 µM (inactive) | > 100 µM (inactive) | 48 µM (inactive) | – | > 100 µM (inactive) | > 100 µM (inactive) | > 100 µM (inactive) | > 100 µM (inactive) | > 100 µM (inactive) | > 100 µM (inactive)
12 | NC(=O)NC(=O)c1cccc(C(=O)NC(N)=O)n1 | > 100 µM (inactive) | > 100 µM (inactive) | > 100 µM (inactive) | > 100 µM (inactive) | > 100 µM (inactive) | – | > 100 µM (inactive) | > 100 µM (inactive) | > 100 µM (inactive) | > 100 µM (inactive) | > 100 µM (inactive) | > 100 µM (inactive) | > 100 µM (inactive) | > 100 µM (inactive) | > 100 µM (inactive) | > 100 µM (inactive) | – | > 100 µM (inactive) | > 100 µM (inactive) | > 100 µM (inactive)
13 | Cc1cccc(/C=N/NC(=S)N2CCCCCC2)n1 | < 0.01 µM (active) | 0.254 µM (active) | 0.288 µM (active) | < 0.01 µM (active) | < 0.01 µM (active) | < 0.0399 µM (active) | < 0.01 µM (active) | < 0.0271 µM (active) | 1.3 µM (inactive) | < 0.01 µM (active) | – | 0.0142 µM (active) | < 0.0166 µM (active) | < 0.01 µM (active) | 0.546 µM (active) | 0.0661 µM (active) | 0.135 µM (active) | 0.0462 µM (active) | < 0.01 µM (active) | 0.103 µM (active)
14 | N=C(N)N/N=C/c1c(-c2cc([N+](=O)[O-])c(Cl)cc2Cl)nc2n1CCS2 | 2.84 µM (inactive) | 27.6 µM (inactive) | 40.9 µM (inactive) | 5.01 µM (inactive) | 7.08 µM (inactive) | 16.4 µM (inactive) | 2.88 µM (inactive) | 6.04 µM (inactive) | 9.38 µM (inactive) | 8.04 µM (inactive) | 10.4 µM (inactive) | 26.5 µM (inactive) | 13.2 µM (inactive) | 9.93 µM (inactive) | 3.13 µM (inactive) | 29.9 µM (inactive) | – | 3.97 µM (inactive) | 2.47 µM (inactive) | 18.2 µM (inactive)
15 | O=C(c1ccco1)N1CCCN(C(=O)c2ccco2)C1=S | > 100 µM (inactive) | > 100 µM (inactive) | 2.32 µM (inactive) | > 100 µM (inactive) | > 100 µM (inactive) | 41.6 µM (inactive) | > 100 µM (inactive) | > 100 µM (inactive) | > 100 µM (inactive) | > 100 µM (inactive) | – | > 100 µM (inactive) | 24.4 µM (inactive) | > 100 µM (inactive) | 46.5 µM (inactive) | > 100 µM (inactive) | – | > 100 µM (inactive) | 7.35 µM (inactive) | > 100 µM (inactive)
